Data on one compound can be found in patent US8022090B2, “Vitamin C composition stabilized with cationic material, anionic material and caffeic acid derivative” (The Faceshop Korea Co., Ltd, priority 2007, dated 2011).

A value given as a limit tells only on which side of the number the result lay.

A short description of the data set: solubility measurement in purified water and ethanol. Particulars: for solubility: ethanol (25° C.); for density up to which dissolved: 25° C.

For `O=C(O)/C=C/c1ccc(O)c(O)c1` [caffeic acid], the solubility result was “dissolved” (density 1 mg/mL) and “dissolved” (density 10 mg/mL). Further, the “density up to which dissolved” value is reported as at least 10 mg/mL (ethanol) and “not dissolved” (purified water).
